Laboratory results reported in US20260174682A1, “GAMMA-AMINOBUTYRIC ACID DERIVATIVE COMPRISING POLYCYCLIC STRUCTURE, METHOD FOR PREPARING SAME, AND USE THEREOF” (ZHONGSHAN INSTITUTE FOR DRUG DISCOVERY, SIMM, CAS., priority 2022, published 2026).
Marks after values point to notes of the source that are not given here.

Assays:
Type in all cases: in vivo
[1] = tested on: mouse 6-Hz psychomotor seizure model; test: Antiepileptic effect in mouse 6-Hz psychomotor seizure model; conditions: 6-Hz model, C57BL/6 mice, gavage
Procedure: A negative vehicle control group, a positive drug control group (pregabalin and gabapentin) and a test group of the compounds of the present application were set. Male C57BL/6 mice with a body weight of 20±2 g were selected. […] After fasted for 12 h, the mice were administered the compounds of the present application or the control drugs, and then subjected to 6-Hz electrical stimulation to induce epilepsy seizure behaviors after a certain time interval (2 h for pregabalin, 1 h for gabapentin, 1 h for levetiracetam, and 3 h for the compounds of the present application). In an induction model, when the stimulation was performed with a Model 4100 stimulator (A-M Systems, the United States), rear necks of the mice were immobilized by hands on a feeding cage, a corneal electrode was moisten with normal saline and allowed to gently contact bilateral corneas of the mice, the electrical stimulator was trod by a foot to give the mice the electrical stimulation with a stimulation parameter of 6-Hz, a one-way square wave of 32 mA, a wave width of 0.2 ms and a stimulation duration of 3 sec, and timing was performed with a stopwatch during the stimulation. After the electrical stimulation was completed, the mice with the seizure behaviors lasting for less than 7 sec were regarded as being protected by the drugs, and the mice with the seizure behaviors lasting for more than 7 sec were regarded as being not protected from the epilepsy by the drugs. Response situations of the animals were observed and recorded, and obtained data were counted to calculate protection rates of the compounds.
Statistical method: The protection rates of different administration groups were separately compared with that of the vehicle control group to carry out a Fisher's exact test.

[2] = tested on: mouse maximum electroshock model (MES); test: Antiepileptic effect in mouse maximum electroshock model (MES); conditions: gavage; for Number of animals with tonic straightening of hind limbs/total number of detected animals / Protection rate (%): MES, ICR mice
Procedure: A negative vehicle control group, a positive drug control group (pregabalin and gabapentin) and a test group of the compounds of the present application were set. Male ICR mice with a body weight of […] were selected. […] After fasted for 12 h, the mice were administered the compounds of the present application or the control drugs according to the body weight, and then subjected to electrical stimulation to induce generalized tonic-clonic seizure behaviors after a certain lime interval (2 h for pregabalin, 1 h for gabapentin, and 3 h for the compounds of the present application). A YLS-9A electrophysiological stimulator (Shanghai Xinruan Information Technology Co., Ltd.) was used in an induction model, and parameters were set as follows: configuration 8, stimulation voltage 160 V, wave number 90. When the electrical stimulation was performed, ears on both sides of the mice were firstly wiped with normal saline and then given the electrical stimulation for 1 lime with ear clip electrodes. Tonic straightening of hind limbs was used as a standard for epilepsy seizures. The animals with the tonic straightening of hind limbs were regarded as not being protected by the drugs, and the animals without the tonic straightening of hind limbs were regarded as being protected by the drugs. Response situations of the animals were observed and recorded, and obtained data were counted to calculate protection rates of the compounds.
Median effective doses (ED50) of the compounds to be tested for animal protection were calculated by a least square method (Graphpad Prism 5) with an administration dose-protection rate curve.

[3] = tested on: Sprague Dawley (SD) rat spared nerve injury (SNI) model; test: Analgesic effect in rat spared nerve injury (SNI) chronic neuropathic pain model; conditions: SNI rats
Procedure: Establishment of the SNI model: Surgery was performed according to an aseptic operation method, and various surgical instruments, including scalpels, tweezers, suture needles/threads, surgical cotton, etc., were disinfected before the surgery. Animals were anesthetized by intraperitoneal injection of a Zoletil™ 50 solution at 50 mg/kg and then placed in lateral decubitus positions. After hair in surgical areas of lower bodies of animals was shaved, the animals were disinfected alternately with iodophor and 75% alcohol. The skin was cut at upper edges of left hind limbs, muscles were bluntly separated to expose a sciatic nerve trunk and 3 branches thereof, i.e., a tibial nerve, a common peroneal nerve and a sural nerve. The tibial nerve and the common peroneal nerve were ligated and cut, and the sural nerve was preserved and maintained intact. After the surgery, wounds were sutured layer by layer, the animals were administered with 25% ampicillin (1 mL/kg) through intraperitoneal injection to prevent infection, and routine nursing was performed. In sham group, only the sciatic nerve and the branches thereof were exposed, the nerves were not ligated and cut, and other operations were the same as those in the model group. Detection of a mechanical pain threshold: A Von-frey test fiber was used to detect the mechanical pain threshold of the sole of an operative side of each animal on day 1, day 3 and day 7 after the surgery, respectively. An “up-and-down” method was used as a method of detecting the mechanical pain threshold at the stimulation intensity of 0.4, 0.6, 1, 2, 4, 6, 8, and 15 g. During the test, the test fiber was used to vertically stimulate the site, close to an outer side, in the sole center of the left hind paw of a rat for 6-8 seconds each time at an interval of 5 seconds. A pain response was shown as an obvious paw withdrawal, paw licking, or paw lifting behavior of the animals during each test. From day 11 after the surgery, the animals were placed in an experimental environment for adaptation, wherein the adaptation was performed continuously for 15 min per day for 3 days. On day 13, a basic value of mechanical pain hypersensitivity was detected after the adaptation was completed. The mechanical pain hypersensitivity was expressed by a 50% paw-withdrawal threshold (PWT) according to a calculation formula of 50% PWT (g)=10^xf+kδ, wherein xf is a log value of a fiber test force, k is a tabular value, and δ is an average spacing of the log value of the fiber test force.
Pharmacodynamic evaluation: According to basic threshold detection results on day 13 after the surgery, the animals in the model group without the mechanical pain hypersensitivity, that is, the PWT was greater than 4 g, were excluded, and the other successfully modeled animals were used for a formal test. On day 14 after the surgery, various compound to be tested were newly formulated. Pregabalin was directly dissolved with 0.9% sodium chloride at a dose of 30 mg/kg to obtain a solution at a desired concentration. (±)—I-7, (±)—I-3 and (±)—I-4 p-toluenesulfonate were also completely dissolved with a 0.9% sodium chloride solution at a dose of 30 mg/kg (calculated by free base). The successfully modeled animals were randomly divided into 5 groups with 8 animals in each group. In addition, 7 animals were selected in the sham group. […] The mechanical pain hypersensitivity response of the left hind paw was detected at 1 h, 2 h, 4 h, 6 h, 8 h, 10 h, and 24 h after the administration. Evaluation was performed by using a blind method, and a detection method was the same as above. An area under a mechanical pain threshold-time curve (AUC) was calculated using GraphPad Prism Version 8.0.1 software.

[4] = dose 60 mg/kg (calculated by free base)
[5] = dose 3 mg/kg (own compounds calculated by free base)
[6] = dose 6 mg/kg (own compounds calculated by free base)
[7] = dose 10 mg/kg (own compounds calculated by free base)
[8] = dose 18 mg/kg (own compounds calculated by free base)
[9] = dose 30 mg/kg (own compounds calculated by free base)
[10] = dose 60 mg/kg (own compounds calculated by free base)
[11] = oral gavage 10 mg/kg (calculated by free base), from AUC of mechanical pain threshold-time curve to 24 h

Cc1ccc(S(=O)(=O)O)cc1.NCC1(CC(=O)O)CC2C3C=CC(C3)C21 (single isomer, unassigned; (+)) [(+)-I-4 p-toluenesulfonate]
Number of animals with clonic seizures/total number [1, 4]: 2/4
Protection rate (%) [1, 4]: 50.0 * %
Median effective dose (ED50) for animal protection ([2]; MES mice, least square fit of administration dose-protection rate curve): 21.51 mg/kg
Number of animals with tonic straightening of hind limbs/total number of detected animals [2, 5]: 7/8
Protection rate (%) [2, 5]: 12.5%
Number of animals with tonic straightening of hind limbs/total number of detected animals [2, 6]: 6/8
Protection rate (%) [2, 6]: 25%
Number of animals with tonic straightening of hind limbs/total number of detected animals [2, 7]: 7/8
Protection rate (%) [2, 7]: 12.5%
Number of animals with tonic straightening of hind limbs/total number of detected animals [2, 8]: 7/12
Protection rate (%) [2, 8]: 41.7%
Number of animals with tonic straightening of hind limbs/total number of detected animals [2, 9]: 3/8
Protection rate (%) [2, 9]: 62.5%
Number of animals with tonic straightening of hind limbs/total number of detected animals [2, 10]: 1/6
Protection rate (%) [2, 10]: 83.3%
area under the mechanical pain threshold-time curve compared with the vehicle control group ([3]; oral gavage 10 mg/kg (calculated by free base)): significantly improved
maximum possible effect (MPE) [3, 11]: 69.09%

CC(C)C[C@H](CN)CC(=O)O [Pregabalin]
Number of animals with clonic seizures/total number ([1]; dose 30 mg/kg): 1/6**
Protection rate (%) ([1]; dose 30 mg/kg): 83.3 *** %
Number of animals with tonic straightening of hind limbs/total number of detected animals [2, 5]: 9/12
Protection rate (%) [2, 5]: 25%
Number of animals with tonic straightening of hind limbs/total number of detected animals [2, 6]: 10/12
Protection rate (%) [2, 6]: 16.67%
Number of animals with tonic straightening of hind limbs/total number of detected animals [2, 7]: 6/12
Protection rate (%) [2, 7]: 50%
Number of animals with tonic straightening of hind limbs/total number of detected animals [2, 8]: 5/12
Protection rate (%) [2, 8]: 58.33%
Number of animals with tonic straightening of hind limbs/total number of detected animals [2, 9]: 4/20
Protection rate (%) [2, 9]: 80%
Number of animals with tonic straightening of hind limbs/total number of detected animals [2, 10]: 1/12
Protection rate (%) [2, 10]: 91.66%
ED50 ([2]; Mus musculus, po, MES mice, least square fit of administration dose-protection rate curve, read-out: Median effective dose (ED50) for animal protection): 12 mg/kg
maximum possible effect (MPE) [3, 11]: 23.04%
maximum possible effect (% MPE) ([3]; oral gavage 30 mg/kg (calculated by free base), from AUC of mechanical pain threshold-time curve to 24 h): 110.90%
